Laboratory results reported in ChEMBL document CHEMBL3045033, “Synthesis of new potential anticancer agents based on 4-thiazolidinone and oleanane scaffolds” (Med Chem Res, 2012).

Columns and labels:
Hs-578T [1] = assay: Cytotoxicity against Homo sapiens (human) Hs578T cells after 48 hr by SRB assay; assay type: functional
CAKI-1 = assay: Cytotoxicity against Homo sapiens (human) Caki1 cells after 48 hr by SRB assay; assay type: functional; conditions: CAKI-1, 48 h
MCF7 = assay: Cytotoxicity against Homo sapiens (human) MCF7 cells assessed as cellular growth at 10^-5 M after 48 hr by SRB assay relative to untreated control; assay type: functional
OVCAR-8 = assay: Cytotoxicity against Homo sapiens (human) OVCAR8 cells assessed as cellular growth at 10^-5 M after 48 hr by SRB assay relative to untreated control; assay type: functional
U-251 = assay: Cytotoxicity against Homo sapiens (human) U251 cells assessed as cellular growth at 10^-5 M after 48 hr by SRB assay relative to untreated control; assay type: functional
HCT-116 = assay: Cytotoxicity against Homo sapiens (human) HCT116 cells assessed as cellular growth at 10^-5 M after 48 hr by SRB assay relative to untreated control; assay type: functional
NCI-H522 = assay: Cytotoxicity against Homo sapiens (human) NCI-H522 cells assessed as cellular growth at 10^-5 M after 48 hr by SRB assay relative to untreated control; assay type: functional
NCI-H460 [2] = assay: Cytotoxicity against Homo sapiens (human) NCI-H460 cells assessed as cellular growth at 10^-5 M after 48 hr by SRB assay relative to untreated control; assay type: functional
A549 = assay: Cytotoxicity against Homo sapiens (human) A549 cells assessed as cellular growth at 10^-5 M after 48 hr by SRB assay relative to untreated control; assay type: functional
IGROV-1 = assay: Cytotoxicity against Homo sapiens (human) IGROV1 cells at 10^-4 to 10^-8 M after 48 hr by SRB assay; assay type: functional; conditions: IGROV-1, 48 h, read-out: pTGI (converted)
MDA-MB-435 = assay: Cytotoxicity against Homo sapiens (human) MDA-MB-435 cells at 10^-4 to 10^-8 M after 48 hr by SRB assay; assay type: functional; conditions: MDA-MB-435, 48 h, read-out: pTGI (converted)
SK-MEL-2 = assay: Cytotoxicity against Homo sapiens (human) SK-MEL-2 cells after 48 hr by SRB assay; assay type: functional; conditions: SK-MEL-2, 48 h
NCI-H460 [3] = assay: Cytotoxicity against Homo sapiens (human) NCI-H460 cells after 48 hr by SRB assay; assay type: functional; conditions: NCI-H460, 48 h
[4] = Toxicity in mouse; assay type: organism-based; conditions: in vivo
HL-60(TB) = assay: Cytotoxicity against Homo sapiens (human) HL-60(TB) cells assessed as cellular growth at 10^-5 M after 48 hr by SRB assay relative to untreated control; assay type: functional
CCRF-CEM = assay: Cytotoxicity against Homo sapiens (human) CCRF-CEM cells assessed as cellular growth at 10^-5 M after 48 hr by SRB assay relative to untreated control; assay type: functional
T47D = assay: Cytotoxicity against Homo sapiens (human) T47D cells assessed as cellular growth at 10^-5 M after 48 hr by SRB assay relative to untreated control; assay type: functional
MDA-MB-468 [5] = assay: Cytotoxicity against Homo sapiens (human) MDA-MB-468 cells at 10^-4 to 10^-8 M after 48 hr by SRB assay; assay type: functional; conditions: MDA-MB-468, 48 h, read-out: pTGI (converted)
MDA-MB-468 [6] = assay: Cytotoxicity against Homo sapiens (human) MDA-MB-468 cells after 48 hr by SRB assay; assay type: functional; conditions: MDA-MB-468, 48 h, read-out: pLC50 (the source's name) (converted)
Hs-578T [7] = assay: Cytotoxicity against Homo sapiens (human) Hs578T cells assessed as cellular growth at 10^-5 M after 48 hr by SRB assay relative to untreated control; assay type: functional
TK-10 = assay: Cytotoxicity against Homo sapiens (human) TK10 cells assessed as cellular growth at 10^-5 M after 48 hr by SRB assay relative to untreated control; assay type: functional
A498 = assay: Cytotoxicity against Homo sapiens (human) A498 cells assessed as cellular growth at 10^-5 M after 48 hr by SRB assay relative to untreated control; assay type: functional
SF-295 = assay: Cytotoxicity against Homo sapiens (human) SF295 cells assessed as cellular growth at 10^-5 M after 48 hr by SRB assay relative to untreated control; assay type: functional

With COC(=O)[C@]12CCC(C)(C)C[C@H]1C1=CC[C@@H]3[C@@]4(C)CC/C(=N\O)C(C)(C)[C@@H]4CC[C@@]3(C)[C@]1(C)CC2 the GI50 (Hs-578T [1]) was 27.5 µM, the GI50 (CAKI-1) was 19.5 µM and the Activity (MCF7) was 26.08%. For the same compound, the Activity (OVCAR-8) was 11.3%, the Activity (U-251) was 33.89% and the Activity (HCT-116) was 3.39%. It also gave an Activity (NCI-H522) of 23.74%, an Activity (NCI-H460 [2]) of 44.14% and an Activity (A549) of -41.06%. For the same compound, the TGI (IGROV-1) was > 100 µM, the TGI (MDA-MB-435) was > 100 µM and the GI50 (SK-MEL-2) was 64.6 µM. For the same compound, the GI50 (NCI-H460 [3]) was 21.9 µM.
For COC(=O)[C@]12CCC(C)(C)C[C@H]1C1=CC[C@@H]3[C@@]4(C)CC/C(=N\OC(=O)/C=C5/SC(=O)NC5=O)C(C)(C)[C@@H]4CC[C@@]3(C)[C@]1(C)CC2, the MTD [4] was > 400 mg/kg, the Activity (HL-60(TB)) was -46.91% and the Activity (CCRF-CEM) was -24.8%. For the same compound, the Activity (T47D) was 9.18%, the TGI (MDA-MB-468 [5]) was 6.61 µM and the TGI (IGROV-1) was 4.17 µM. The TGI (MDA-MB-435) was 9.12 µM.
In the case of CC1(C)CC[C@@]23CC[C@]4(C)[C@@](OC2=O)([C@@H]3C1)[C@@H](Br)C[C@@H]1[C@@]2(C)CC/C(=N\O)C(C)(C)[C@@H]2CC[C@]14C, the CC50 (MDA-MB-468 [6]) is reported as > 100 µM, the GI50 (Hs-578T [1]) is reported as 4.68 µM and the GI50 (CAKI-1) is reported as 28.2 µM. It also gave an Activity (Hs-578T [7]) of 258.88%, an Activity (TK-10) of 31.05% and an Activity (A498) of 150.51%. For the same compound, the Activity (SF-295) was 19.14%, the GI50 (SK-MEL-2) was > 100 µM and the GI50 (NCI-H460 [3]) was 19.1 µM.
